Entries after “also recorded” stand apart in the source; their conditions may differ. Blank lines part the entries; values can stand above or below the compound they belong to.
How the values were obtained:
HSP72 = details: read-out: KM for ATP; cited from earlier work
HSP72-NBD [1] = target: T1, HSP72-NBD (Homo sapiens, UniProt P0DMV8); experiment: HSP72-NBD nucleotide-derived FP-assay (probe displacement, App. Ki, time-dependent); format: binding
HSP72-NBD [2] = target: T1, HSP72-NBD; experiment: Covalent (kinetic) FP-assay; format: binding
HSP72-NBD [3] = target: T1, HSP72-NBD; details: even at high concentrations; cited from earlier work
HSP72-NBD [4] = target: T1, HSP72-NBD; experiment: Intact-protein mass spectrometry of covalent adduct formation; format: binding; details: 20 μM compound, 2.0 μM HSP72-NBD, 21 °C

T1 sequence (P0DMV8 2-386 limits assumed): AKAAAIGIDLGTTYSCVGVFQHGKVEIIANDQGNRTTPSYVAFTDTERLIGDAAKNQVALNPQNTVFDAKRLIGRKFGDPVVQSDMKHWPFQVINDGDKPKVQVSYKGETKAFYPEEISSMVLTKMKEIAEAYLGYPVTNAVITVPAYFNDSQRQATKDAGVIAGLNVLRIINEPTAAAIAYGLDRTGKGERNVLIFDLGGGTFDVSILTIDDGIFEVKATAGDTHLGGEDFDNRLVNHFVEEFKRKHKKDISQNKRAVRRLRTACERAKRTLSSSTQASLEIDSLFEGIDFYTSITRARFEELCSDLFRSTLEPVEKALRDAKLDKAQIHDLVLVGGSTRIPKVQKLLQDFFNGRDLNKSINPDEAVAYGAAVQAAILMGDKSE

SMILES: Nc1ncnc2c1ncn2[C@@H]1O[C@H](COP(=O)(O)OP(=O)(O)OP(=O)(O)O)[C@@H](O)[C@H]1O [ATP]
Km (HSP72): ~1 µM

fold weaker/less potent than tight-binding reversible MMP 9 (HSP72-NBD [1]): > 18 fold
SMILES: N#Cc1ccc(C(=O)OC[C@H]2O[C@@H](n3c(NCc4ccc(Cl)cc4)nc4c(N)ncnc43)[C@H](O)[C@@H]2O)cc1 [Compound 15, ((2R,3S,4R,5R)-5-(6-amino-8-((4-chlorobenzyl)amino)-9H-purin-9-yl)-3,4-dihydroxytetrahydrofuran-2-yl)methyl 4-cyanobenzoate]

Ki (HSP72-NBD [1]; Time 19 h): 7.2 µM
Ki (HSP72-NBD [1]; Time 46 h): 3.7 µM
Ki (HSP72-NBD [1]; Time […] (printed 0.08 3)): 17 µM
kinact (HSP72-NBD [2]; from kinact/KI and initial Ki, assuming KI = Ki): 1.6e-05 s⁻¹
t1/2^inf (HSP72-NBD [2]; ln 2/kinact): 12 h
SMILES: C=CC(=O)OCCC[C@H]1O[C@@H](n2c(NCc3ccc(Cl)cc3)nc3c(N)ncnc32)[C@H](O)[C@@H]1O [Compound 2, 3-((2R,3S,4R,5R)-5-(6-amino-8-((4-chlorobenzyl)amino)-9H-purin-9-yl)-3,4-dihydroxytetrahydrofuran-2-yl)propyl acrylate]
exposure required for complete formation of the covalent complex by intact-protein MS (HSP72-NBD [3]): > 24 h

SMILES: CC1(C)O[C@@H]2[C@H](O1)[C@@H](COC(=O)c1ccc(S(=O)(=O)F)cc1)O[C@H]2n1c(NCc2ccc(Cl)cc2)nc2c(N)ncnc21 [Compound 13, ((3aR,4R,6R,6aR)-6-(6-amino-8-((4-chlorobenzyl)amino)-9H-purin-9-yl)-2,2-dimethyltetrahydrofuro[3,4-d][1,3]dioxol-4-yl)methyl 4-(fluorosulfonyl)benzoate]
reversible binding affinity (HSP72-NBD [1]): no reversible binding affinity
time dependence of App. Ki / probe displacement curve (HSP72-NBD [1]; WT HSP72-NBD): no time-dependent displacement
covalent-bond formation by intact-protein MS (HSP72-NBD [4]): no reaction; also recorded: no reactivity

SMILES: Nc1ncnc2c1ncn2[C@@H]1O[C@H](COC(=O)c2ccc(S(=O)(=O)F)cc2)[C@@H](O)[C@H]1O [Compound 16, ((2R,3S,4R,5R)-5-(6-amino-9H-purin-9-yl)-3,4-dihydroxytetrahydrofuran-2-yl)methyl 4-(fluorosulfonyl)benzoate]
fold weaker activity / decrease in covalent efficiency vs TCI 14 (HSP72-NBD [2]): 70 fold

SMILES: Nc1ncnc2c1nc(NCc1ccc(Cl)cc1)n2[C@@H]1O[C@H](COCc2ccc(C(=O)Oc3ccc(F)cc3)cc2)[C@@H](O)[C@H]1O [Compound 8, 4-fluorophenyl 4-((((2R,3S,4R,5R)-5-(6-amino-8-((4-chlorobenzyl)amino)-9H-purin-9-yl)-3,4-dihydroxytetrahydrofuran-2-yl)methoxy)methyl)benzoate]
covalent-bond formation by intact-protein MS (HSP72-NBD [4]): no evidence of specific and selective covalent-bond formation
